According to patent US6391885B1, “Method of treating a patient having precancerous lesions with phenyl cycloamino pyrimidinone derivatives” (Cell Pathways, Inc., priority 1995, dated 2002):

First: CCCc1ccnc2c(=O)[nH]c(-c3cc(S(=O)(=O)N4CCNCC4)ccc3OCC)nc12 [Example 3, 2-[2-Ethoxy-5-(1-piperazinylsulphonyl)phenyl]-8-n-propylpyrido[3,2-d]pyrimidin-4(3H)-one]
Second: CCCc1ccnc2c(=O)[nH]c(-c3cc(S(=O)(=O)N4CCC(C(=O)OCC)CC4)ccc3OCC)nc12 [Example 4, 2-[2-Ethoxy-5-(4-ethoxycarbonylpiperidinosulphonyl)phenyl]-8-n-propylpyrido[3,2-d]pyrimidin-4(3H)-one]
The melting point of the first is lower: 178 to 180 °C for the first, 204 to 205 °C for the second.

Compared with `CCCc1ccnc2c(=O)[nH]c(-c3cc(S(=O)(=O)NC)ccc3OCC)nc12` [Example 6, 2-[2-Ethoxy-5-(methylsulphamoyl)phenyl]-8-n-propylpyrido[3,2-d]pyrimidin-4(3H)-one], `CCCOc1ccccc1-c1nc2nnc(SC)nc2c(=O)[nH]1` [Example 75, 5,6-Dihydro-3-methylthio-5-oxo-7-(2-propoxyphenyl)pyrimido[5,4-e][1,2,4]triazine] is lower in melting point: 216 to 219 °C for the first, 195 to 197 °C for the second.

`CCCOc1ccccc1-c1nc2nc(SC)nnc2c(=O)[nH]1` [Example 79, 3-Methylthio-8-oxo-6-(2-propoxyphenyl)-7,8-dihydropyrimido[4,5-e][1,2,4]triazine] gave a melting point of 247 to 249 °C.
